Data taken from PubChem BioAssay AID248 (DTP/NCI, 2004).
“And” between values parts separate entries of the source, which are not always exact repeats. Identical values can stand only once. Inconclusive results and toxic doses are left out. No stated cut-off is given here; in the data, active means T/C of 150% or more; inactive means T/C below 125%.

Test system: L1210 leukemia ip in BDF1 mice, survival T/C
Assay: NCI In Vivo Anticancer Drug Screen. Data for tumor model L1210 Leukemia (intraperitoneal) in B6D2F1 (BDF1) mice
Settings: endpoint: mean survival time, higher = longer survival
Outline: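 Antitumor effect is assessed in tumor-bearing animals. Survival in the compound arm is compared with a vehicle-dosed control arm and expressed as their quotient.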

[1] = dose: 100.0 mg/kg/injection, schedule: Q01DX009 (ip), vehicle: saline with Tween-80
[2] = dose: 200.0 mg/kg/injection, schedule: Q01DX009 (ip), vehicle: saline with Tween-80
[3] = dose: 400.0 mg/kg/injection, schedule: Q01DX009 (ip), vehicle: saline with Tween-80
[4] = dose: 100.0 mg/kg/injection, schedule: Q04DX002 (ip), vehicle: saline with Tween-80
[5] = dose: 100.0 mg/kg/injection, schedule: Q04DX003 (ip), vehicle: saline with Tween-80
[6] = dose: 200.0 mg/kg/injection, schedule: Q04DX002 (ip), vehicle: saline with Tween-80
[7] = dose: 200.0 mg/kg/injection, schedule: Q04DX003 (ip), vehicle: saline with Tween-80
[8] = dose: 400.0 mg/kg/injection, schedule: Q04DX002 (ip), vehicle: saline with Tween-80
[9] = dose: 400.0 mg/kg/injection, schedule: Q04DX003 (ip), vehicle: saline with Tween-80
[10] = dose: 100.0 mg/kg/injection, schedule: Q01DX009 (ip), vehicle: Klucel (hydroxypropylcellulose) (HPC)
[11] = dose: 200.0 mg/kg/injection, schedule: Q01DX009 (ip), vehicle: Klucel (hydroxypropylcellulose) (HPC)
[12] = dose: 6.25 mg/kg/injection, schedule: Q01DX009 (ip), vehicle: saline with Tween-80
[13] = dose: 12.5 mg/kg/injection, schedule: Q01DX009 (ip), vehicle: saline with Tween-80
[14] = dose: 12.5 mg/kg/injection, schedule: Q04DX003 (ip), vehicle: saline with Tween-80
[15] = dose: 25.0 mg/kg/injection, schedule: Q04DX003 (ip), vehicle: saline with Tween-80
[16] = dose: 50.0 mg/kg/injection, schedule: Q04DX003 (ip), vehicle: saline with Tween-80

Measured: T/C

O=C(O)c1ccccc1C(=O)c1ccc2ccccc2c1
inactive: dose: 12.5 mg/kg/injection, schedule: Q04DX002 (ip), vehicle: saline with Tween-80 94 % of control | dose: 25.0 mg/kg/injection, schedule: Q04DX002 (ip), vehicle: saline with Tween-80 88 % of control | dose: 50.0 mg/kg/injection, schedule: Q04DX002 (ip), vehicle: saline with Tween-80 91 % of control

C/C=C/C(=O)Nc1cccc(C(F)(F)F)c1
inactive: dose: 25.0 mg/kg/injection, schedule: Q01DX009 (ip), vehicle: other 92 % of control | dose: 50.0 mg/kg/injection, schedule: Q01DX009 (ip), vehicle: other 102 % of control | dose: 100.0 mg/kg/injection, schedule: Q01DX009 (ip), vehicle: other 92 % of control and 95 % of control

CC(=O)c1cccc(NC(=O)c2ccc(F)cc2)c1
inactive: [1] 100 % of control | [2] 98 % of control | [3] 88 % of control

Cc1cccc(NC(=O)Oc2cc(C)c(Cl)cc2C(C)C)c1
inactive: dose: 100.0 mg/kg/injection, schedule: Q01DX001 (ip), vehicle: saline with Tween-80 103 % of control | [1] 95 % of control and 103 % of control | [4] 105 % of control and 108 % of control | [5] 90 % of control | dose: 200.0 mg/kg/injection, schedule: Q01DX001 (ip), vehicle: saline with Tween-80 104 % of control | [2] 98 % of control and 103 % of control | [6] 97 % of control and 87 % of control | [7] 98 % of control | dose: 400.0 mg/kg/injection, schedule: Q01DX001 (ip), vehicle: saline with Tween-80 106 % of control | [3] 95 % of control and 98 % of control | [8] 94 % of control and 100 % of control | [9] 100 % of control

O=C(O)Cc1ccccc1Cl
inactive: dose: 100.0 mg/kg/injection, schedule: Q01DX009 (ip), vehicle: gum acacia 100 % of control | dose: 200.0 mg/kg/injection, schedule: Q01DX009 (ip), vehicle: gum acacia 96 % of control

Nc1ccnc(SCc2ccc(Cl)cc2)n1
inactive: dose: 100.0 mg/kg/injection, schedule: Q04DX003 (ip), vehicle: gum acacia 105 % of control | dose: 200.0 mg/kg/injection, schedule: Q04DX003 (ip), vehicle: gum acacia 104 % of control | dose: 400.0 mg/kg/injection, schedule: Q04DX003 (ip), vehicle: gum acacia 98 % of control

CC(OCCO)C1CCC2C3CCC4=CC(=O)CCC4(C)C3C(O)C(C)C12C (stereo not drawn)
inactive: dose: 50.0 mg/kg/injection, schedule: Q01DX001 (sc), vehicle: steriod suspending solution 102 % of control | dose: 100.0 mg/kg/injection, schedule: Q01DX001 (sc), vehicle: steriod suspending solution 100 % of control | dose: 200.0 mg/kg/injection, schedule: Q01DX001 (sc), vehicle: steriod suspending solution 110 % of control | dose: 400.0 mg/kg/injection, schedule: Q01DX001 (sc), vehicle: steriod suspending solution 102 % of control

Cc1cccc(Cl)c1NC(=O)c1cc([N+](=O)[O-])cc([N+](=O)[O-])c1
inactive: [10] 100 % of control | [11] 96 % of control

CCc1c(C(OC)OC)[nH]c(=S)[nH]c1=O
inactive: [1] 94 % of control | [5] 100 % of control | [2] 100 % of control | [7] 100 % of control | [3] 94 % of control | [9] 105 % of control

CC1CCOC(C)(CO)O1 (stereo not drawn)
inactive: [4] 98 % of control | [6] 95 % of control | [8] 98 % of control

CCCNC(=NC)c1ccc(NC(=O)c2ccc(C(=O)Nc3ccc(C(=NC)NCCC)cc3)cc2)cc1
active: dose: 5.5 mg/kg/injection, schedule: Q01DX Z (ip), vehicle: saline 156 % of control and 162 % of control | dose: 8.3 mg/kg/injection, schedule: Q01DX Z (ip), vehicle: saline 151 % of control and 172 % of control
inactive: dose: 1.6 mg/kg/injection, schedule: Q01DX Z (ip), vehicle: saline 94 % of control | dose: 2.4 mg/kg/injection, schedule: Q01DX Z (ip), vehicle: saline 111 % of control | dose: 3.6 mg/kg/injection, schedule: Q01DX Z (ip), vehicle: saline 107 % of control and 120 % of control | dose: 12.5 mg/kg/injection, schedule: Q## X000 (oral), vehicle: saline 103 % of control | dose: 25.0 mg/kg/injection, schedule: Q## X000 (oral), vehicle: saline 100 % of control | dose: 50.0 mg/kg/injection, schedule: Q## X000 (oral), vehicle: saline 101 % of control | dose: 250.0 mg/kg/injection, schedule: Q01DX010 (oral), vehicle: saline 107 % of control | dose: 500.0 mg/kg/injection, schedule: Q01DX010 (oral), vehicle: saline 114 % of control

O=C1C=C(C(=O)O)CO1
inactive: [10] 95 % of control

NC(=O)N/N=C/c1ccccc1
inactive: [10] 96 % of control | dose: 100.0 mg/kg/injection, schedule: Q04DX002 (ip), vehicle: Klucel (hydroxypropylcellulose) (HPC) 89 % of control | [11] 96 % of control | dose: 200.0 mg/kg/injection, schedule: Q04DX002 (ip), vehicle: Klucel (hydroxypropylcellulose) (HPC) 100 % of control | dose: 400.0 mg/kg/injection, schedule: Q01DX009 (ip), vehicle: Klucel (hydroxypropylcellulose) (HPC) 111 % of control | dose: 400.0 mg/kg/injection, schedule: Q04DX002 (ip), vehicle: Klucel (hydroxypropylcellulose) (HPC) 104 % of control

CCCCn1c(C)nc2c(N)cc(C(F)(F)F)cc21
inactive: dose: 200.0 mg/kg/injection, schedule: Q01DX001 (ip), vehicle: Klucel (hydroxypropylcellulose) (HPC) 100 % of control | dose: 400.0 mg/kg/injection, schedule: Q01DX001 (ip), vehicle: Klucel (hydroxypropylcellulose) (HPC) 111 % of control

O=C(O)c1cc(C(=O)O)c(C(=O)O)cc1C(=O)O
inactive: [1] 96 % of control | [2] 91 % of control | [3] 94 % of control

N#C/C(=C\c1ccc(-c2ccccc2)cc1)c1ccc(Cl)cc1
inactive: dose: 3.13 mg/kg/injection, schedule: Q01DX009 (ip), vehicle: saline with Tween-80 98 % of control | [12] 92 % of control | [13] 93 % of control and 87 % of control | [14] 95 % of control | [15] 95 % of control | [16] 93 % of control

O=C(O)C(O)C(O)C(=O)O.O=C(O)C(O)C(O)C(=O)O.[O]=[V].[O]=[V] (stereo not drawn)
inactive: dose: 6.25 mg/kg/injection, schedule: Q01DX009 (ip), vehicle: saline 101 % of control and 110 % of control | dose: 6.25 mg/kg/injection, schedule: Q04DX003 (ip), vehicle: saline 92 % of control and 106 % of control | dose: 12.5 mg/kg/injection, schedule: Q01DX009 (ip), vehicle: saline 101 % of control and 96 % of control | dose: 12.5 mg/kg/injection, schedule: Q04DX003 (ip), vehicle: saline 92 % of control and 96 % of control | dose: 25.0 mg/kg/injection, schedule: Q01DX009 (ip), vehicle: saline 98 % of control and 94 % of control | dose: 25.0 mg/kg/injection, schedule: Q04DX003 (ip), vehicle: saline 96 % of control and 97 % of control and 109 % of control | dose: 50.0 mg/kg/injection, schedule: Q04DX003 (ip), vehicle: saline 104 % of control | dose: 100.0 mg/kg/injection, schedule: Q04DX003 (ip), vehicle: saline sonified 91 % of control

COc1cc2cc3c4cc(OC)c(OC)cc4cc[n+]3c(/C=C/c3cccc(O)c3)c2cc1OC
inactive: dose: 25.0 mg/kg/injection, schedule: Q04DX002 (ip), vehicle: carboxymethylcellulose (CMC) 97 % of control and 108 % of control | dose: 50.0 mg/kg/injection, schedule: Q04DX002 (ip), vehicle: carboxymethylcellulose (CMC) 101 % of control | dose: 100.0 mg/kg/injection, schedule: Q01DX001 (ip), vehicle: carboxymethylcellulose (CMC) 102 % of control and 110 % of control | dose: 200.0 mg/kg/injection, schedule: Q01DX001 (ip), vehicle: carboxymethylcellulose (CMC) 110 % of control and 119 % of control | dose: 400.0 mg/kg/injection, schedule: Q01DX001 (ip), vehicle: carboxymethylcellulose (CMC) 98 % of control and 114 % of control | dose: 400.0 mg/kg/injection, schedule: Q04DX002 (ip), vehicle: carboxymethylcellulose (CMC) 105 % of control and 115 % of control

COc1ccc(N=NN(C)C)cc1
inactive: [12] 98 % of control | [13] 100 % of control | [14] 107 % of control | dose: 18.75 mg/kg/injection, schedule: Q01DX001 (ip), vehicle: saline with Tween-80 107 % of control | dose: 25.0 mg/kg/injection, schedule: Q01DX009 (ip), vehicle: saline with Tween-80 100 % of control | [15] 108 % of control | dose: 37.5 mg/kg/injection, schedule: Q01DX001 (ip), vehicle: saline with Tween-80 108 % of control | dose: 50.0 mg/kg/injection, schedule: Q01DX009 (ip), vehicle: saline with Tween-80 104 % of control | [16] 115 % of control | [5] 108 % of control
